In patent US5292760A, “4-heteroaryl-1,3-benzodiazepines and 2-substituted-α-(heteroaryl)benzeneethanamines” (Hoechst-Roussel Pharmaceuticals Inc., priority 1992, dated 1994):
Structures can show the parent of a compound that is named as a salt. Where two headings read alike, the source gives them in different places.

What was measured:
[1] = test system: supramaximal electroshock (SES); assay: supramaximal electroshock (SES) assay (anticonvulsant activity); format: in vivo, male mouse; conditions: Mus musculus, ip, read-out: Anticonvulsant Activity ED50
Experimental: The Formula III compounds of this invention are useful as anticonvulsants due to their anticonvulsant activity in mammals. Anticonvulsant activity is measured in the male mouse using the supramaximal electroshock (SES) assay described in Arch. Int. Pharmacodyn. 92: 97-107, 1952. Intraperitoneal doses of representative compounds of the invention and their ability to protect from the effect of SES is shown below in Table 2. ED50 values, i.e., the doses at which, within 95% confidence intervals, 50% of the animals are protected are calculated by computerized probit analysis.

[2] = test system: N-methyl-D-aspartic acid (NMDA)-induced seizures; assay: N-Methyl-D,L-Aspartic Acid Induced Seizure Assay (NMDA protection); format: in vivo, male Swiss Webster mice; conditions: Mus musculus, 0.5 h; ip; N-methyl-D,L-aspartic acid 350 mg/kg, sc; total absence of clonic seizures during 30 minutes
Experimental: In this assay, male Swiss Webster mice (Charles River), 18-25 grams are used. Animals are ordered at 33 to 36 days of age and can be used for 8 days after arrival. They are housed for at least 24 hours in a climate controlled animal colony with food and water available ad libitum. On the day of testing, animals are brought to the laboratory and randomly assigned to groups. N-Methyl-D,L-aspartic acid (350 mg) is dissolved in 10 ml of saline and mixed thoroughly with a homogenizer for 1-2 minutes. Test compounds are prepared in distilled water and, if insoluable, a suitable surfactant is added. For a primary screen the test compound is administered at 60 mg/kg, ip (10 ml/kg), to groups of ten mice, 30 minutes prior to challenge with N-methyl-D,L-aspartic acid (350 mg/kg, sc). After N-Methyl-D,L-aspartic acid administration animals are placed individually in clear plastic cyclinders (12"×5.5"×1/4") and then observed for clonic seizures. N-methyl-D,L-aspartic acid will produce clonic seizures, and sometimes tonic seizures and death, in vehicle control animals.
A clonic convulsion is defined as a single episode of clonic spasms of a least a 3 second duration. A tonic seizure is defined as a brief period of hindlimb flexion followed by a prolonged period of hindlimb extension. The mice treated with N-methyl-D,L-aspartic acid are considered "protected" when there is a total absence of clonic seizures during the 30 minute observation period.
Test compounds are run at the time of peak effect. Three or more doses are used (10 animals per group).
Data is calculated by the method of J. T. Litchfield, Jr. and F. Wilcoxon. A test should be repeated if 40% of vehicle control animals are protected. The normalized percent formula is used when 10-30% of the vehicle control animals are protected.
The normalized percent protection is calculated using the following formula: […]

[3] = test system: Geller Conflict Paradigm in Rats; assay: Geller Conflict Paradigm in Rats (anxiolytic activity); format: in vivo
Description: The intraperitoneal (i.p.) dosages at which the following compounds show anxiolytic activity are: […]

[4] = test system: tetrabenazine induced ptosis; assay: tetrabenazine induced ptosis assay in mice (antidepressant activity); format: in vivo; conditions: Mus musculus, ip, read-out: Anti-Depressant Activity ED50
[5] = 50% inhibition of ptosis of tetrabenazine-induced depression in mice

CNC(Cc1cc(Br)ccc1N)c1sccc1C (stereo not drawn) [2-Amino-5-bromo-N-methyl-α-(3-methyl-2-thienyl)benzeneethaneamine]
ED50 [1]: 9.2 mg/kg

NC(CCCP(=O)(O)O)C(=O)O (stereo not shown) [2-Amino-5-phosphonovaleric acid, reference compound]
ED50 [2]: 48.5 mg/kg

CCNC(Cc1ccccc1N)c1sccc1C.Cl.Cl (stereo not drawn) [2-Amino-N-ethyl-α-(3-methyl-2-thienyl)benzeneethanamine dihydrochloride]
Anti-Conflict Response, % Change Compared to Control ([3]; dose 1 m.g./kg i.p.): +100%
Anti-Conflict Response, % Change Compared to Control ([3]; dose 5 m.g./kg i.p.): +70%

CNC(Cc1ccccc1N)c1cccs1 (stereo not drawn) [2-Amino-N-methyl-α-(2-thienyl)benzeneethanamine dihydrochloride hemihydrate]
ED50 [1]: 30.4 mg/kg

CNC(Cc1ccc(C(F)(F)F)cc1N)c1sccc1C (stereo not drawn) [2-Amino-N-methyl-α-(3-methyl-2-thienyl)-4-trifluoromethylbenzeneethanamine]
ED50 [2]: 26.4 mg/kg

CNC(Cc1ccccc1N)c1sccc1C (stereo not drawn) [2-Amino-N-methyl-α-(3-methyl-2-thienyl)benzeneethanamine]
ED50 [2]: 26.7 mg/kg
ED50 [1]: 4.6 mg/kg
Anti-Conflict Response, % Change Compared to Control ([3]; dose 20 m.g./kg i.p.): +807%
Anti-Conflict Response, % Change Compared to Control ([3]; dose 40 m.g./kg i.p.): +547%
Anti-Conflict Response, % Change Compared to Control ([3]; dose 60 m.g./kg i.p.): +242%

Cc1ccsc1C(N)Cc1ccccc1N.Cl.Cl (stereo not drawn) [2-Amino-α-(3-methyl-2-thienyl)benzeneethanamine dihydrochloride]
ED50 [2]: 19 mg/kg

CC1=Nc2ccccc2CC(c2ccc(C)s2)N1C (stereo not shown) [4,5-Dihydro-2,3-dimethyl-4-(5-methyl-2-thienyl)-3H-1,3-benzodiazepine]
ED50 [4]: 12.2 mg/kg

CCC1=Nc2ccccc2CC(c2cccs2)N1C.Cl (stereo not shown) [4,5-Dihydro-2-ethyl-3-methyl-4-(2-thienyl)-3H-1,3-benzodiazepine hydrochloride]
ED50 [4, 5]: 4.7 mg/kg

CCC1=Nc2ccccc2CC(c2sccc2C)N1C.Cl.O (stereo not shown) [4,5-Dihydro-2-ethyl-3-methyl-4-(3-methyl-2-thienyl)-3H-1,3-benzodiazepine hydrochloride monohydrate]
ED50 [4, 5]: 5.3 mg/kg

CCC1=Nc2ccccc2CC(c2ccsc2)N1C.Cl (stereo not shown) [4,5-Dihydro-2-ethyl-3-methyl-4-(3-thienyl)-3H-1,3-benzodiazepine hydrochloride]
ED50 [4, 5]: 8.7 mg/kg

CCC1=Nc2ccccc2CC(c2ccncc2)N1C (stereo not shown) [4,5-Dihydro-2-ethyl-3-methyl-4-(4-pyridinyl)-3H-1,3-benzodiazepine hemihydrate]
ED50 [4]: 6.8 mg/kg

CN1C(=O)CN=C(c2ccccc2)c2cc(Cl)ccc21 [Diazepam, reference compound]
Anti-Conflict Response, % Change Compared to Control ([3]; dose 10 m.g./kg i.p.): +180%
Anti-Conflict Response, % Change Compared to Control ([3]; dose 15 m.g./kg i.p.): +453%
Anti-Conflict Response, % Change Compared to Control ([3]; dose 20 m.g./kg i.p.): +630%

O=C1NC(=O)C(c2ccccc2)(c2ccccc2)N1 [Diphenylhydantoin, reference compound]
ED50 ([1]; dose protecting 50% of the animals, 95% confidence, probit analysis): 3.9 mg/kg

CN(C)CCC=C1c2ccccc2COc2ccccc21 [Doxepin, reference compound]
ED50 [4, 5]: 3.8 mg/kg
